In paper PMC12392461, “Beyond Estrogenicity: A Comparative Assessment of Bisphenol A and Its Alternatives in In Vitro Assays Questions Safety of Replacements” (Environmental Science & Technology, 2025):
Read-outs that look alike come from different tables or passages of the source.

Key:
[1] = tested on: Antioxidant response element; test: MitoOxTox: oxidative stress response in AREc32; conditions: for EC10, linear / logEC10: Bioassay ARE, dosing range all; for EC10, linear: linear model fit; for logEC10: log-logistic model fit
Outline: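 Only concentrations below cytotoxic IC10 entered EC10 or ECIR1.5 derivation, with ECIR1.5 serving as the ARE benchmark in AREc32 (MCF7) cells. AhR was read in H4L7.5c2 CALUX cells. SH-SY5Y cells received 10 µM all-trans retinoic acid for differentiation and were assessed by live–dead staining; other lines by confluency.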

HEK293H (PPARγ) = conditions: for IC10, linear: linear model; for IC10, HEK293, PPARγ: cytotoxicity, HEK293 (PPARγ assay cells)
Outline: (§1)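 For the AhR, PPARγ, ERα and ARE reporter lines, a 24 h chemical exposure followed 24 h of attachment, with serial dilutions tested in duplicate. ARE activity was benchmarked as ECIR1.5 and the others as EC10, each from concentrations below the IC10. Cytotoxicity was taken from change in confluency by live-cell imaging.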

HEK293T (ERα) = conditions: for IC10, linear: linear model fit; for IC10, HEK293, ERα: HEK293 (ERα assay cells)
Outline: as §1

H4IIe (AhR CALUX) = conditions: for IC10, linear: linear model fit; for IC10, H4IIe, AhR: H4IIe (AhR assay cells)
Outline: as §1

MCF7 (ARE/MMP) = conditions: for IC10, MCF7, ARE: MCF7, ARE readout; for IC10, MCF7, MMP: MCF7, MMP readout
Outline: as §1

SH-SY5Y cells = test: cells; conditions: for EC10: Homo sapiens, SH-SY5Y; for EC10, linear / logEC10: NOI bioassay, dosing range all; for EC10, linear: linear model; for Specificity ratio (SRbaseline) SRNOI: against baseline cytotoxicity; for Relative effect potency REPNOI: relative to BPA; for logEC10: log-logistic model; for Specificity ratio (SRcytotoxicity) SRNOI: against experimental cytotoxicity;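 as to Relative effect potency REPNOI: EC10 of BPA divided by EC10 of the test compound so values above 1 mean more potent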;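 as to Specificity ratio (SRbaseline) SRNOI: ratio of predicted baseline cytotoxicity IC10 to the neurite outgrowth inhibition EC10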
Outline: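 ARE activity measured in MCF7-based AREc32 reporter cells, AhR in H4L7.5c2 CALUX cells, and neurotoxicity in SH-SY5Y cells differentiated with 10 µM retinoic acid. Viability was tracked by confluency imaging, or live–dead staining for SH-SY5Y. ARE benchmark was ECIR1.5; only concentrations below IC10 were used for EC10/ECIR1.5.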

[2] = PPARγ bioassay cytotoxicity, dosing range all
[3] = PPARγ bioassay cytotoxicity, dosing range all, log-logistic model
[4] = Bioassay ERα, cytotoxicity, dosing range all
[5] = Bioassay ERα, cytotoxicity, dosing range all, log-logistic model fit
[6] = Bioassay AhR, cytotoxicity, dosing range all
[7] = Bioassay AhR, cytotoxicity, dosing range all, log-logistic model fit
[8] = Bioassay ARE, cytotoxicity, dosing range all, linear model fit
[9] = Bioassay ARE, cytotoxicity, dosing range all, log-logistic model fit
[10] = MMP bioassay cytotoxicity, dosing range all, linear model
[11] = MMP bioassay cytotoxicity, dosing range all, log-logistic model
[12] = read-out: EC10, linear transformed
[13] = Bioassay ARE, cytotoxicity, dosing range all
[14] = MMP bioassay cytotoxicity, dosing range all
[15] = against baseline cytotoxicity, MMP readout
[16] = Arec32, read-out: EC10, linear transformed

Compound | EC10, linear [1] | logEC10 [1] | IC10, linear (HEK293H (PPARγ); [2]) | logIC10 (HEK293H (PPARγ); [3]) | Toxic ratio (TR) TRPPARγ (HEK293H (PPARγ); against baseline cytotoxicity) | IC10, HEK293, PPARγ (HEK293H (PPARγ)) [µM] | IC10, linear (HEK293T (ERα); [4]) | logIC10 (HEK293T (ERα); [5]) | IC10, linear (H4IIe (AhR CALUX); [6]) | logIC10 (H4IIe (AhR CALUX); [7]) | IC10, linear (MCF7 (ARE/MMP); [8]) | logIC10 (MCF7 (ARE/MMP); [9]) | IC10, linear (MCF7 (ARE/MMP); [10]) | logIC10 (MCF7 (ARE/MMP); [11]) | EC10 (SH-SY5Y cells; read-out: EC10, NOI) [M] | EC10 (SH-SY5Y cells; read-out: EC10, NOI (M)) [M] | EC10 (SH-SY5Y cells; [12]) [M] | IC10, linear transformed (HEK293H (PPARγ); [2]) | IC10, linear transformed (HEK293T (ERα); [4]) | IC10, HEK293, ERα (HEK293T (ERα); cytotoxicity) [µM] | further results
Cc1ccc(S(=O)(=O)NC(=O)Nc2ccc(Cc3ccc(NC(=O)NS(=O)(=O)c4ccc(C)cc4)cc3)cc2)cc1 [BTUM, 4,4'-Bis(p-tolylsulfonylureido)diphenylmethane] | no effect | no effect | 4.34E-05 | -4.51 | 0.91 | 31 | 3.66E-05 | no cytotoxicity | no cytotoxicity | no cytotoxicity | no cytotoxicity | no cytotoxicity | no cytotoxicity | no cytotoxicity | 6.48e-05 | 6.48e-05 | 6.48e-05 |  |  |  | EC10 (SH-SY5Y cells; read-out: logEC10): 6.46e-05 M; EC10, linear (SH-SY5Y cells): no effect; Specificity ratio (SRbaseline) SRNOI (SH-SY5Y cells): 1.03; Relative effect potency REPNOI (SH-SY5Y cells): 0.78
C=CCOc1ccc(S(=O)(=O)c2ccc(O)cc2)cc1 [BPS-MAE, 4-[[4-(Allyloxy)phenyl]sulfonyl]phenol] | no effect | no effect | 9.34E-05 | -4.24 |  | 57.5 | 2.44E-04 | -3.85 | 8.24E-05 | -4.07 | 4.93E-04 | -3.41 | 1.02E-03 | -3.07 | 2.52e-05 | 2.52e-05 | 2.55e-05 | 1.96E-05 | 6.22E-05 | 244 | IC10, linear transformed (H4IIe (AhR CALUX); [6]): 8.61E-05; IC10, H4IIe, AhR (H4IIe (AhR CALUX); cytotoxicity): 82.4 µM; IC10, linear transformed (MCF7 (ARE/MMP); [13]): 3.86E-04; IC10, linear transformed (MCF7 (ARE/MMP); [14]): 8.44E-04; IC10, MCF7, ARE (MCF7 (ARE/MMP); cytotoxicity): 386 µM; IC10, MCF7, MMP (MCF7 (ARE/MMP); cytotoxicity): 844 µM; EC10 (SH-SY5Y cells; read-out: EC10, linear): 6.61e-05 M; EC10 (SH-SY5Y cells; read-out: logEC10): 2.51e-05 M
CC(C)(c1ccc(O)c(-c2ccccc2)c1)c1ccc(O)c(-c2ccccc2)c1 [BPPH, 2,2-Bis(2-hydroxy-5-biphenylyl)propane] | no effect | no effect | 8.25E-06 | -5.16 | 0.15 | 6.92 | no cytotoxicity | -5.08 | 1.29E-05 | -4.74 | 5.76E-06 | -5.54 | 5.66E-06 | -5.11 |  |  | 2.12e-05 | 4.34E-06 | 5.43E-06 | 8.3 | Toxic ratio (TR) TRERα (HEK293T (ERα); against baseline cytotoxicity): 0.13; IC10, linear transformed (H4IIe (AhR CALUX); [6]): 1.81E-05; Toxic ratio (TR) TRAhR (H4IIe (AhR CALUX); against baseline cytotoxicity): 0.32; IC10, H4IIe, AhR (H4IIe (AhR CALUX); cytotoxicity): 12.9 µM; IC10, linear transformed (MCF7 (ARE/MMP); [13]): 2.86E-06; IC10, linear transformed (MCF7 (ARE/MMP); [14]): 7.75E-06; Toxic ratio (TR) TRARE (MCF7 (ARE/MMP); against baseline cytotoxicity, ARE readout): 1.43; Toxic ratio (TR) TRMMP (MCF7 (ARE/MMP); [15]): 0.53; IC10, MCF7, ARE (MCF7 (ARE/MMP); cytotoxicity): 2.86 µM; IC10, MCF7, MMP (MCF7 (ARE/MMP); cytotoxicity): 7.75 µM; EC10 (SH-SY5Y cells; read-out: EC10, linear): 9.84e-06 M; logEC10 (SH-SY5Y cells): no effect
O=S(=O)(c1ccc(O)cc1)c1ccccc1O [2,4-BPS, 2,4'-Dihydroxydiphenyl sulfone] | no effect | no effect |  |  |  |  |  |  |  |  |  |  |  |  |  |  | 0.000871 |  |  |  | EC10 [1, 16]: 88700 µM; Toxic ratio (TR) TRPPARγ (HEK293H (PPARγ); human, 24 h): 2.23; logIC10 (HEK293H (PPARγ); human, 24 h): -3.73; Toxic ratio (TR) TRERα (HEK293T (ERα); human, 24 h): 1.27; logIC10 (HEK293T (ERα); human, 24 h): -3.36; Toxic ratio (TR) TRAhR (H4IIe (AhR CALUX); rat, 24 h): 3.11; logIC10 (H4IIe (AhR CALUX); rat, 24 h): -3.52; Toxic ratio (TR) TRARE (MCF7 (ARE/MMP); human, 24 h): 0.77; Toxic ratio (TR) TRMMP (MCF7 (ARE/MMP); human, 24 h): 0.77; logIC10 (MCF7 (ARE/MMP); human, 24 h): -3.05; EC10, linear (SH-SY5Y cells): no effect; logEC10 (SH-SY5Y cells): no effect
Oc1ccc(Sc2ccc(O)cc2)cc1 [BPT, 4,4'-Thiodiphenol] |  | masked by cytotoxicity | 2.13E-05 | -4.76 |  | 17.4 | 2.43E-05 | -4.53 | 5.00E-05 | -4.09 | 3.07E-04 | -3.76 | 2.97E-04 | -3.69 |  |  |  | 4.47E-06 | 4.06E-05 | 24.3 | EC10 ([1]; Arec32, read-out: EC10, linear): 85.6 µM; EC10 [1, 16]: 1500 µM; IC10, linear transformed (H4IIe (AhR CALUX); [6]): 8.07E-05; IC10, H4IIe, AhR (H4IIe (AhR CALUX); cytotoxicity): 50 µM; IC10, linear transformed (MCF7 (ARE/MMP); [13]): 1.75E-04; IC10, linear transformed (MCF7 (ARE/MMP); [14]): 2.05E-04; IC10, MCF7, ARE (MCF7 (ARE/MMP); cytotoxicity): 175 µM; IC10, MCF7, MMP (MCF7 (ARE/MMP); cytotoxicity): 205 µM; EC10, linear (SH-SY5Y cells): no effect; logEC10 (SH-SY5Y cells): no effect
Cc1ccc(S(=O)(=O)NC(=O)Nc2cccc(OS(=O)(=O)c3ccc(C)cc3)c2)cc1 [Pergafast, N-(p-toluenesulfonyl)-N'-(3-(p-toluenesulfonyloxy)phenyl)urea] | no effect | no effect | 2.22E-05 | -4.72 | 2.74 | 19.1 | 1.21E-05 | -4.96 | no cytotoxicity | no cytotoxicity | 4.06E-05 | no cytotoxicity | no cytotoxicity | no cytotoxicity | 1.25e-05 | 1.25e-05 | 1.52e-05 | 1.21E-06 | 8.23E-06 | 12.1 | Toxic ratio (TR) TRERα (HEK293T (ERα); against baseline cytotoxicity): 4.31; EC10 (SH-SY5Y cells; read-out: EC10, linear): 1.25e-05 M; EC10 (SH-SY5Y cells; read-out: logEC10): 1.51e-05 M; Specificity ratio (SRbaseline) SRNOI (SH-SY5Y cells): 8.80; Specificity ratio (SRcytotoxicity) SRNOI (SH-SY5Y cells): 3.95; Relative effect potency REPNOI (SH-SY5Y cells): 4.06
Cc1cc(Cc2cc(C)c(O)c(C)c2)cc(C)c1O [TMBPF, Bis(3,5-dimethyl-4-hydroxyphenyl)methane] | no effect | no effect | 3.65E-06 | -5.53 | 1.52 | 2.95 | 6.58E-06 | -5.17 | 1.11E-04 | -3.98 | no cytotoxicity | no cytotoxicity | no cytotoxicity | -4.85 | 4.28e-06 | 4.28e-06 | 5.49e-06 | 4.21E-07 | 5.55E-06 | 6.58 | Toxic ratio (TR) TRERα (HEK293T (ERα); against baseline cytotoxicity): 0.68; IC10, linear transformed (H4IIe (AhR CALUX); [6]): 1.05E-04; Toxic ratio (TR) TRAhR (H4IIe (AhR CALUX); against baseline cytotoxicity): 0.13; IC10, H4IIe, AhR (H4IIe (AhR CALUX); cytotoxicity): 105 µM; IC10, linear transformed (MCF7 (ARE/MMP); [14]): 1.42E-05; Toxic ratio (TR) TRMMP (MCF7 (ARE/MMP); [15]): 0.95; IC10, MCF7, MMP (MCF7 (ARE/MMP); cytotoxicity): 14.2 µM; EC10 (SH-SY5Y cells; read-out: EC10, linear): 5.06e-06 M; EC10 (SH-SY5Y cells; read-out: logEC10): 4.27e-06 M; Specificity ratio (SRbaseline) SRNOI (SH-SY5Y cells): 2.18; Specificity ratio (SRcytotoxicity) SRNOI (SH-SY5Y cells): 2.97; Relative effect potency REPNOI (SH-SY5Y cells): 11.87
